Test results from patent US9012454B2, “Sexual dysfunction” (Mayo Foundation for Medical Education and Research, priority 2005, dated 2015).

Columns and labels:
LZ+ MYPT1 isoform = assay: Western blot of relative LZ+ MYPT1 isoform expression in vascular smooth muscle after LAD ligation; type: in vivo, rat; details: for LZ+ MYPT1 isoform expression in aorta (in words) / LZ+ MYPT1 isoform expression in iliac artery (in words): captopril 2-8 weeks, prazosin 4 weeks
[1] = system: surgical infarct model of CHF; assay: Transthoracic echocardiography in surgical infarct (LAD ligation) model of CHF; type: in vivo, rat; details: for fractional shortening (FS): 4 weeks after surgery, captopril 100 mg/kg/day or prazosin 2 mg/kg/day, mean±SEM
Description: Adult male Sprague-Dawley rats (Harlan, Indianapolis, Ind.) weighing 400-450 grams were put under general anesthesia by intraperitoneal injection with a mixture (3:3:2) of ketamine (100 mg/mL), xylazine (20 mg/mL), and acepromazine (10 mg/mL). After intubation, the rats were ventilated continuously (room air) using a small animal ventilator (model 683, Harvard Apparatus, Holliston, Mass.). A left lateral thoracotomy incision was made along the 5th intercostal space. After the pericardium was opened, the heart was exteriorized using a retention suture placed at the apex. The left anterior descending coronary artery (LAD) was ligated twice using 6-0 prolene suture (Ethicon, Piscataway, N.J.). After chest closure with running 3-0 vicryl suture (Ethicon), rats were placed in a recovery chamber with a heating pad and a warming light.
Beginning on post-operative day one, rats were allowed to drink ad libitum. One group was fed water with captopril (2 g/L), and another group was fed water alone (Pfeffer et al., Circ. Res., 57:84-95 (1985)). The rats were fed a standard diet of Teklad rodent feed (Harlan) ad libitum and kept on a 12:12 hour light-dark cycle. In both the captopril- and the placebo-treated group, the rats were sacrificed at designated time intervals of 2 weeks and then 4, 6, and 8 weeks after surgery. On average, the rats drank approximately 20 mL of water daily, which corresponded to a dose of 100 mg/kg/day of captopril.
All rats in the placebo- and captopril-treated groups underwent transthoracic echocardiography (Acuson Sequoia C256® Echocardiography System, Siemens Medical Solutions USA, Inc., Malvern, Pa.) at baseline prior to LAD ligation and at 2, 4, 6, and 8 weeks after LAD ligation using 2-D digital loop imaging under conscious sedation with vaporized isoflurane as described previously (Karim et al., Circ. Res., 95:612-18 (2004); Morgan et al., Am. J. Physiol. Heart Circ. Physiol., 287:H2049-H2053 (2004)). […] Both parasternal long and short axis views were obtained using a 13-MHz linear array transducer. Digital calipers were used to measure end systolic dimension (ESD) and end diastolic dimension (EDD). Cardiac function was estimated using fractional shortening (FS) obtained from the EDD and ESD in the parasternal long axis view and calculated as FS=((EDD−ESD)/EDD)×100%.
The echocardiographic data were reported as mean±SEM.

Structure (SMILES) | LZ+ MYPT1 isoform expression in aorta (in words) (LZ+ MYPT1 isoform; infarct rats, aorta) | LZ+ MYPT1 isoform expression in iliac artery (in words) (LZ+ MYPT1 isoform; infarct rats, iliac artery) | LZ+ MYPT1 isoform expression in portal vein (in words) (LZ+ MYPT1 isoform; infarct rats, portal vein, all time intervals) | effect on fractional shortening / left ventricular function (LVF) ([1]; infarct rats versus placebo, captopril as early as 2 weeks post-infarction, prazosin at 4 weeks) | fractional shortening (FS) ([1]; infarct rats) | end systolic dimension (ESD) compared to placebo ([1]; infarct rats, all time-points (2, 4, 6, 8 weeks), P<0.05) | LZ+ MYPT1 isoform expression in the aorta (fall versus uninfarcted control) (LZ+ MYPT1 isoform; aorta, 4 weeks after infarction, placebo 44±1%, P<0.05) | LZ+ MYPT1 isoform expression in the iliac artery (fall versus uninfarcted control) (LZ+ MYPT1 isoform; iliac artery, 4 weeks after infarction, placebo 52±2%, P=0.87)
C[C@H](CS)C(=O)N1CCC[C@H]1C(=O)O [captopril] | preserved at the uninfarcted control level | preserved at the level of the uninfarcted control smooth muscle | remained low | attenuated the fall in FS and improved left ventricular function | 45±1% | reduced the ESD |  | 
COc1cc2nc(N3CCN(C(=O)c4ccco4)CC3)nc(N)c2cc1OC [prazosin] | did not prevent the fall | did not prevent the fall |  |  | 38±2% |  | 68±1% | 54±2%
